Laboratory results as given in patent US20070048247A1, “Deodorizing tablets” (Kimberly-Clark Worldwide, Inc., priority 2005, published 2007).

Legend:
[1] = Redox potential (redox potentiometry); type: physicochemical
Text: The ability of quinone compounds to accept electrons from another substance (i.e., be reduced) may be quantified using a technique known as redox potentiometry. Redox potentiometry is a technique that measures (in volts) the affinity of a substance for electrons—its electronegativity—compared with hydrogen (which is set at 0). Substances more strongly electronegative than (i.e., capable of oxidizing) hydrogen have positive redox potentials. Substances less electronegative than (i.e., capable of reducing) hydrogen have negative redox potentials. The greater the difference between the redox potentials of two substances (ΔE), the greater the vigor with which electrons will flow spontaneously from the less positive to the more positive (more electronegative) substance. As is well known in the art, redox potential may be measured using any of a variety of commercially available meters, such as an Oxidation Reduction Potential (ORP) tester commercially available from Hanna Instruments, Inc. of Woonsocket, R. I. The redox potential of the quinone compounds may, for instance, be less than about −50 millivolts (mV), in some embodiments less than about −150 mV, in some embodiments less than about −300 mV, and in some embodiments, less than about −500 mV. Although not always the case, the redox potential may vary based on the number and location of functional groups, such as sulfonic acid, on the quinone structure. For example, 2-sulfonic acid anthraquinone has a redox potential of −380 mV; 2,6-disulfonic acid anthraquinone has a redox potential of −325 mV; and 2,7-disulfonic acid anthraquinone has a redox potential of −313 mV. Likewise, 2-sulfonic acid naphthaquinone has a redox potential of −60 mV. The use of other functional groups may also have an affect on the ultimate redox potential of the compound. For example, Acid Blue 25, which also contains amino- and aramid functional groups, has a redox potential of −605 mV.

[2] = Example 2 urine odor panel ranking (1.6 millimolar); set-up: species or system Human; settings: 1.6 millimolar in urine, after 24 hours
Text: The powders chosen for this example were powders of Acid Blue 25, Acid Blue 45, Acid Blue 129, FD&C Blue No.1 (a triarylmethane), Acid Green 27, Acid Green 41, and Mordant Violet 5 (Alizarin Violet 3R) (commercially available from Sigma-Aldrich Chemical Co., Inc. of St. Louis, Mo.), as well as D&C Green No. 5 (commercially available from Noveon Hilton Davis, Inc. of Cincinnati, Ohio). Human female urine was initially collected and pooled by a nurse on staff at Kimberly-Clark Corporation. […] Powders of the aforementioned quinone compounds were weighed and placed into the mason jars containing 50 milliliters of urine so that the final concentration of the powder was 1.6 millimolar (equivalent to 0.1 wt. %). […] A score of “10” was assigned to the most malodorous jar and a score of “1” was assigned to the least malodorous jar.

[3] = Example 3 urine odor panel ranking; set-up: species or system Human
Method: (§1) The effectiveness of various quinone compounds in reducing urine odor was compared. […] Human female urine was initially collected and pooled by a nurse on staff at Kimberly-Clark Corporation. The pooled urine was added to mason jars in 50-milliliter aliquots using an automated pipette aid. […] The mason jars were placed in an incubator overnight at 37° C.
(§2) In addition to ranking the jars from least to most malodorous (on a scale from 1 to 7, with 7 being the most malodors), panelists were also asked to judge whether there were secondary (non-urine) odors present and, if so, the extent that the secondary odors were unpleasant (on a scale from 1 to 5, with 5 being extremely unpleasant).
In this assessment, panelists were given instructions to rank the least malodorous jar as “1” and the most malodorous jar as “10,” remaining free to rank the other jars between 2-9.

[4] = Example 3 secondary (non-urine) odor ranking; set-up: species or system Human; settings: individual panelist scores, scale 1 to 5, 5 extremely unpleasant
Method: as §1, §2

[5] = Example 7 urine odor panel ranking (16 millimolar); set-up: species or system Human; settings: Example 7 Group C; 16 millimolar in urine; 1 least, 10 most urine malodor
Outline: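 Quinone powders were added at a final 16 millimolar (1 wt. %) to pooled human female urine, and jars were incubated overnight at 37° C. Jars were compared with an untreated urine control jar. The next day panelists scored malodor from 1 (least) to 10 (most).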

[6] = Solubility of powder in urine; settings: Example 7; 16 mM in 50 milliliters of urine
[7] = Example 3 first grouping, 8 millimolar in urine, scale 1 to 7, 7 most malodorous
[8] = Example 3 top performers of both groupings, after 24 hours, 1 least, 10 most malodorous

O=C1c2ccc(S(=O)(=O)O)cc2C(=O)c2ccc(S(=O)(=O)O)cc21 [2,6-disulfonic acid anthraquinone]
redox potential [1]: −325 mV

O=C1C=C(S(=O)(=O)O)C(=O)c2ccccc21 [2-sulfonic acid naphthaquinone]
redox potential [1]: −60 mV

Cc1ccc(Nc2cccc3c2C(=O)c2cccc(Nc4ccc(C)cc4S(=O)(=O)[O-])c2C3=O)c(S(=O)(=O)[O-])c1.[Na+].[Na+]
reducing odor (in words) [2]: did not perform as well in reducing odor as D&C Green No. 5 | Average Urine Odor Ranking, Avg. Score [3, 7]: 5.8 | Urine Odor Ranking 4 (number of panelists) [3, 7]: 1 | Urine Odor Ranking 6 (number of panelists) [3, 7]: 3 | Urine Odor Ranking 7 (number of panelists) [3, 7]: 1 | Secondary Odor Ranking ([4]; Example 3 first grouping): 1

O=C1c2ccccc2C(=O)c2cc(S(=O)(=O)O)ccc21 [2-sulfonic acid anthraquinone]
redox potential [1]: −380 mV

Nc1c(S(=O)(=O)[O-])cc(Nc2ccccc2)c2c1C(=O)c1ccccc1C2=O.[Na+] [Acid Blue 25]
redox potential [1]: −605 mV | urine odor reduction (in words) ([3]; Example 3 first grouping): functioned effectively to reduce odor | Average Urine Odor Ranking, Avg. Score [3, 7]: 3.0 | Urine Odor Ranking 1 (number of panelists) [3, 7]: 1 | Urine Odor Ranking 2 (number of panelists) [3, 7]: 1 | Urine Odor Ranking 3 (number of panelists) [3, 7]: 1 | Urine Odor Ranking 4 (number of panelists) [3, 7]: 1 | Urine Odor Ranking 5 (number of panelists) [3, 7]: 1 | Urine Odor Ranking 4 (number of panelists) [3, 8]: 1 | Urine Odor Ranking 7 (number of panelists) [3, 8]: 1 | Urine Odor Ranking 9 (number of panelists) [3, 8]: 2 | Urine Odor Ranking 10 (number of panelists) [3, 8]: 1 | Average Urine Odor Ranking, Avg. Score ([3]; Example 3 top performers, after 24 hours, 1 least, 10 most malodorous): 6.8 | Average Urine Odor Ranking (with statistical corrections), Avg. Score ([3]; Example 3 top performers, after 24 hours, ignoring statistical anomalies): 8.8 | Secondary Odor Ranking ([4]; Example 3 first grouping): 2 | Secondary Odor Ranking ([4]; Example 3 top performers, after 24 hours): 4 | Average Rankings (Group C), Avg. Score [5]: 2.4 | Urine Odor Ranking 1 (number of panelists) [5]: 3 | Urine Odor Ranking 4 (number of panelists) [5]: 1 | Urine Odor Ranking 5 (number of panelists) [5]: 1 | Soluble? [6]: Mostly
